Values joined by “and” are separate entries in the source; they are usually repeats but may differ in a detail not shown here. Equal values may be shown once.
Key:
[1] = system: CEM cells; assay: Cytotoxicity, ID50 and ID90 by trypan blue staining; format: cell-based; conditions: for IC90 / IC50: Homo sapiens, CCRF-CEM; for IC90: 48 h, CEM cells, concentration killing 90% of the cells, read-out: ID90 (the source's name); for IC50: 48 hr, NT = Non-toxic to CEM cells
Protocol: CEM cells, a human T-cell lymphoblastoid leukemia cell line (American Type Culture Collection, Rockville, Md.), were cultured in suspension (Iscove's Dulbecco's Medium) supplemented with 10% heat inactivated fetal bovine serum (FBS), penicillin (250 μ/ml) and streptomycin (250 μl/ml). Cells were incubated at 37° C. in 5% C02 and only those cells in exponential growth were used.
CEM cells were seeded into 96-well microplates (Falcon, Oxnard, Calif.) at 10^5 cell per well, then treated with 0-10 μg/ml of the candidate compounds for 48 h at 37° C. yielding a total volume of 250 μ/well. Cell viability was assessed by trypan blue staining. ID50 and ID90 were defined as the concentration killing 50% or 90% of the cells in comparison with untreated controls, and calculated by non-linear regression analysis.
Cells in suspension culture were seeded into 96-well microplates (Falcon, Oxnard, Calif.) at 10^5 cell per well, followed, by treatment with 0-10 μg/ml of the candidate compounds for 48 hr at 37° C. with total volume of 250 μl per well. Cell viability was assessed by trypan blue exclusion.
The ID50 and ID90 was determined in duplicate in every set of experiments, and each experiment was repeated 3 times under identical conditions. ID50 and ID90 were defined as drug concentrations that induced 50% or 90% cellular death in comparison with untreated controls and calculated by non-linear regression analysis. […]

[2] = system: CEM cells; assay: Morphology by microscopy (mitotic arrest, apoptosis, necrosis); format: cell-based, human; conditions: for Activities of inducing Apoptosis / Activities of inducing Mitotic block / Activities of inducing Necrosis / morphological effect on leukemic cells: CEM leukemic cells; for Activities of inducing Apoptosis / Activities of inducing Mitotic block / Activities of inducing Necrosis: % of affected cells; for Mitotic arrest, %: CEM cells, % of mitotic cells after 24 h incubation, optical microscopy
Protocol: Slides for examination of mitosis were prepared on a cytospin centrifuge (Shandon Southern Products Ltd, England ) at 700 g for 5 min. Slides were air dried, fixed in methanol and stained with Giemsa (Harleco, N.J.) at room temperature for 15 min. Cells in mitotic arrest were recognized by the disappearance of nuclear membrane and by the appearance of chromosomal scattering throughout the cytoplasm (reference 1). The % of mitotic cells were counted after 24 h incubation using optical microscopy. Apoptotic cells were identified using common criteria, i.e., shrinkage in cell size, chromatin condensation and fragmentation of the nucleus into discrete masses (reference 2).
Cell samples on slides were prepared by a Cytospin centrifuge (Shandon Southern Products Ltd, England) at 700 g for 5 min. The slides were air dried, fixed in methanol and stained with Giemsa (Harleco, N.J.) at room temperature for 15 min. Alterations of nuclei, membranes and morphological features were observed by light microscopy. Cells in mitotic phase were recognized by the appearance of their chromosomes dispersed in the cytoplasm, and by the disappearance of nuclear membrane. Apoptotic-cells were identified using previously defined criteria, i.e., shrinkage in cell size, chromatin condensation and fragmentation of the nucleus into discrete masses (references 2 & 3). Necrotic cells were differentiated from apoptotic cells by observing swollen cytoplasm and the disappearance of cell membrane prior to the destruction of the nucleus.

Molecule | cytotoxic activity (ID50 level) compared with 3-BAABU ([1]; CEM leukemic cells) | Activities of inducing Apoptosis [2] | Activities of inducing Mitotic block [2] | Activities of inducing Necrosis [2] | IC90 [1] | IC50 ([1]; CEM leukemic cells) [nM] | Mitotic arrest, % [2] [%] | morphological effect on leukemic cells [2] | fold increase of ID50 relative to 3-BAABU ([1]; CEM leukemic cells) [fold]
3-bromopropionylamino benzoylurea [Compound 3-BPABU] | cytotoxic activity was eliminated | − (−:<10%) | − (−:<10%) | − (−:<10%) | – | – | – | – | –
NC(=O)NC(=O)c1ccc(NC(=O)CBr)cc1 [Compound 4-BAABU, 4-bromoacetylamino benzoylurea] | – | − (−:<10%) | − (−:<10%) | ++++ (++++: >75%) | 0.15 µg/mL and 497 nM | 230 | <10 | necrotic cell death | –
CCOC(=O)c1cccc(NC(=O)CCl)c1 [Compound 10, Ethyl-3-chloroacetoamido, benzoate] | – | – | – | – | 0.82 µg/mL and 3.39 µM | – | <10 | – | –
NC(=O)NC(=O)c1ccc(NC(=O)CI)cc1 [9 (4-position), 4-iodoacetoamido, benzoylurea] | – | – | – | – | 0.04 µg/mL and 112 nM | – | <10 | – | –
CCOC(=O)c1cccc(NC(=O)CBr)c1 [Compound 11, Ethyl-3-bromoacetoamido, benzoate] | – | ++++ (++++: >75%) | − (−:<10%) | − (−:<10%) | 0.18 µg/mL and 740 nM | 590 | <10 | caused apoptosis | 10
